# Reference: article PMC10761933, “Acquired and intrinsic resistance to vemurafenib in BRAF^V600E ‐driven melanoma brain metastases” (FEBS Open Bio, 2023)
# Assays:
# [1] = Vemurafenib distribution in plasma, brain regions and tumor of A375 tumor‐bearing mice (LC–MS/MS); format: in vivo; settings: for discrepancy in plasma concentration vs the previous pharmacokinetic experiment: 4 h after third daily administration
# Protocol: To study its distribution in tumor‐bearing mice, vemurafenib was administered p.o. to tumor‐bearing mice for 3 days at a dose of 10 or 25 mg·kg^−1 q.d., starting 14 days after intracranial tumor cell injection. One group of mice received 10 mg·kg^−1 vemurafenib 4 h after administration of 100 mg·kg^−1 elacridar. Four hours after the third administration, blood was collected by heart puncture, and whole brains were dissected and divided into four parts: ipsilateral hemisphere (tissue from the tumor‐bearing hemisphere that was free of macroscopic tumor tissue), contralateral hemisphere (the tumor‐free hemisphere), cerebellum and macroscopic tumor. In a follow‐up experiment, tissues and plasma were collected 4 h after 5 and 10 consecutive daily p.o. administrations of vemurafenib. All tissues were weighed and subsequently homogenized using a FastPrep®‐24 (MP‐Bio‐medicals, Irvine, CA, USA) in 3 mL 1% (w/v) bovine serum albumin. All tissue samples were prepared for LC–MS/MS analysis as described above for plasma samples.
# The LC–MS/MS system consisted of an API 3000 mass spectrometer (Sciex, Framingham, MA, USA) coupled to an UltiMate 3000 LC System (Dionex, Sunnyvale, CA, USA). Samples were separated using a ZORBAX Extend‐C18 column (Agilent, Santa Clara, CA, USA), preceded by a Securityguard C18 precolumn (Phenomenex, Utrecht, the Netherlands). Elution was done using a mixture of mobile phase A (0.1% formic acid in water (v/v)) and mobile phase B (methanol) in a 5 min gradient from 20% to 95% B, followed by 95% B that was maintained for 3 min and then re‐equilibrated at 20% B. Multiple reaction monitoring parameters were 490.2/383.1 (vemurafenib) and 496.2/389.1 (vemurafenib‐^13C6). System control and data analysis were done using ANALYST ® 1.6.2 software (AB Sciex, Foster City, CA, USA).
# [2] = system: intracranial A375 tumors; experiment: Immunohistochemical analysis of vemurafenib‐resistant A375 melanoma brain metastases; format: in vivo; settings: Abcb1a/b;Abcg2−/− mice, 10 mg·kg^−1 × 10d, vs untreated
# Protocol: Mouse brains were fixed in 4% (v/v) formaldehyde. Alternatively, whole heads without skin were fixed in 4% (v/v) formaldehyde and 5% (v/v) glacial acetic acid and subsequently decalcified using a 6.5% (v/v) formic acid solution for 3 days at 37 °C. After fixation, samples were paraffin embedded and sliced into 4 μm thick sections. Whole head slides were stained for hematoxylin and eosin (H&E), human vimentin (1 : 4000; M0725; DakoCytomation, Glostrup, Denmark), P‐gp (1 : 200; 13978; Cell Signaling Technology, Danvers, MA, USA), BCRP (1 : 400; ab24115; Abcam, Cambridge, UK), and CD31 (1 : 200; ab28364; Abcam). Vessel positivity for P‐gp, BCRP, and CD31, as quantified in Fig. 1B, was manually scored in at least 200 vessels per staining. Specific antibody staining for P‐gp and BCRP was validated previously using whole head slices from Abcb1a/b;Abcg2 ^ −/− mice (fig. S2 from).
# Brain slides were stained for H&E, PDGFRβ (1 : 50; 3169; Cell Signaling Technology), phospho‐MET (1 : 150; 3077; Cell Signaling Technology), MET (1 : 100; AF527; R&D Systems, Minneapolis, MN, USA), phospho‐IGF1R (1 : 40 000; sc‐101703; Santa Cruz Biotechnology, Dallas, TX, USA), AXL (1 : 100; 8661; Cell Signaling Technology), NGFR (1 : 400; 8238; Cell Signaling Technology), phospho‐EGFR (1 : 600; ab40815; Abcam), EGFR (1 : 200; ab52894; Abcam), BRAF^V600E (1 : 100; E19290; SpringBioscience, Pleasanton, CA, USA), phospho‐ERK1/2 (1 : 200; 4370; Cell Signaling Technology), phospho‐AKT (1 : 8000; 4060; Cell Signaling Technology), phospho‐S6 (1 : 1000; 2211; Cell Signaling Technology), phospho‐4EBP1 (1 : 100; 2855; Cell Signaling Technology), 4EBP1 (1 : 1200; 9644; Cell Signaling Technology), SOX10 (1 : 100; sc‐17342; Santa Cruz Biotechnology), MITF (1 : 100; 284 M‐94; Cell Marque, Rocklin, CA, USA), and Ki‐67 (1 : 3000; ab15580; Abcam).
compound,measurement,setting,value
CCCS(=O)(=O)Nc1ccc(F)c(C(=O)c2c[nH]c3ncc(-c4ccc(Cl)cc4)cc23)c1F [vemurafenib],levels in tumor core of WT mice relative to Abcb1a/b;Abcg2−/− mice,[1]; 4 h after third daily oral administration,approximately half
same,"concentration in tumor regions, 10 days vs 5 days of treatment",[1]; Abcb1a/b;Abcg2−/− mice and WT mice also receiving elacridar,even higher at the later time point
same,Kp at 4 h,"[1]; FVB nude, mouse, oral, 25 mg·kg^−1, WT mice, stated as very close to the total blood volume of the murine brain, read-out: tissue–plasma ratios in normal brain regions",~0.02
same,penetration in normal brain regions,"[1]; WT mice, 4 h after third daily oral administration",negligible
same,discrepancy in plasma concentration vs the previous pharmacokinetic experiment,[1]; tumor‐bearing Abcb1a/b;Abcg2−/− mice,twofold
same,discrepancy in plasma concentration vs the previous pharmacokinetic experiment,[1]; tumor‐bearing WT mice that also received elacridar,no difference
same,"plasma concentration, long‐term (10 days) vs short‐term (5 days) treated","[1]; tumor‐bearing WT mice, 25 mg·kg^−1",considerably lower
same,"plasma concentration relative to the previous pharmacokinetic experiment (single dose, tumor‐free)","[1]; tumor‐bearing WT mice, 25 mg·kg^−1, 4 h after third daily administration",around one‐fourth
same,PDGFRβ expression (immunohistochemistry),[2],appeared to be diminished
same,proliferation marker Ki‐67 (immunohistochemistry),[2],similarly unaffected
same,immunohistochemical staining of phospho‐S6 and phospho‐4EBP1,[2]; n = 2 per group,profoundly reduced
